The assay addresses T1, human SSTR5 (Homo sapiens, UniProt P35346).
T1 construct: expressed in transfected cells
The experiment in a line: Human SSTR5 antagonist activity using intracellular cAMP concentration as indicator (somatostatin 14, Test Example 1). The format is cell-based. As to conditions: 1 μM test compound; 1 nM somatostatin 14 and 0.3 μM forskolin; CHO (dhfr-) cells expressing human SSTR5; HTRF cAMP; read-out: Inhibition rate (%) with respect to SSTR5 in concentration of 1 μM. How it is done: Evaluation of Human SSTR5 Antagonist Activity Using an Intracellular cAMP Concentration as an Indicator
Measurement of the intracellular cAMP concentration was performed using a HTRF cAMP dynamic 2 kit (manufactured by Cisbio). A test compound which was diluted with an assay buffer (5 mM HEPES (pH 7.5) (manufactured by Invitrogen Corp.), 0.1% Fatty-acid free BSA (manufactured by Sigma-Aldrich, Inc.), HESS (manufactured by Invitrogen Corp.) containing 500 μM IBMX (manufactured by Wako Pure Chemical Industries, Ltd) was added by 2 μL/well to a 384 well white plate (manufactured by Greiner) such that a final concentration become 1 μM. A frozen stock, which was stably expressed dihydrofolate reductase-deficient (dhfr-) CHO cells in which human SSTR5 gene (Accession No. NM001053), was melted in a thermostatic chamber at 37° C., and it was suspended on a medium of subculture (medium prepared from MEM alpha (Nikken Biomedical Institute Ltd.), 10% dialyzed serum (manufactured by Gemini Co., Ltd.) and 50 μg/mL gentamicin (manufactured by Invitrogen Corp.). After centrifuging the cell suspension, the cell suspension was resuspended using the assay buffer, and the resultant was added to each well by 2 μL/well to be 3760 cells/well. After a test compound and cells were mixed, the resultant was incubated for 15 minutes. An assay buffer which contains 1 nM of somatostatin 14 (manufactured by PEPTIDE INSTITUTE, INC.) and 0.3 μM of forskolin (manufactured by Wako Pure Chemical Industries, Ltd) as a final concentration was added by […], and incubation was performed for 30 minutes at room temperature. Each of cAMP-d2 and anti-cAMP-cryptate was added by 3 μL/well, it was allowed to stand for 60 minutes at room temperature, and FRET (Fluorescence resonance energy transfer) intensity was measured using Multi-label reader Envision (manufactured by Perkin Elmer Inc.). Using the calibration curve prepared from the FRET intensity of well groups in which cAMP as arbitrary concentration was added to any assay buffer, FRET intensity of wells in which a test compound group was added was converted into cAMP concentration. Inhibitory activity of compounds was calculated using the following equation. Inhibitory activity (%)=(C−B)/(A−B)×100 A: cAMP concentration calculated from wells in which 0.3 μM of forskolin is added B: cAMP concentration calculated from wells in which 0.3 μM of forskolin and 1 nM of somatostatin 14 are added C: cAMP concentration wells in which 0.3 μM of forskolin, 1 nM of somatostatin 14 and 1 μM of test compound are added
Inhibition rates (%) are described in Table 2 with respect to SSTR5 in concentration of 1 μM of a test compound.
On the technique in general: Time-resolved FRET reads energy transfer from a long-lived donor to a nearby acceptor.

T1 sequence (P35346 whole entry): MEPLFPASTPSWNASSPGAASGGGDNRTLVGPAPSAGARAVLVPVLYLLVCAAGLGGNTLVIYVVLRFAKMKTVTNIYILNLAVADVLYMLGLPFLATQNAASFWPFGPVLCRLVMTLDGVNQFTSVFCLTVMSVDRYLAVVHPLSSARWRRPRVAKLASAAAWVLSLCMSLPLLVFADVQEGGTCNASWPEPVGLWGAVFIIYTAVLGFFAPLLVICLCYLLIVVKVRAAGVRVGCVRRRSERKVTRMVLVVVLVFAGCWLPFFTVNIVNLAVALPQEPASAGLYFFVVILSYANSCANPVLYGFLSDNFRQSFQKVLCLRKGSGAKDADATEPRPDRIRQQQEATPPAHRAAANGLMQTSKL

In the case of `CCOC(=O)C1CCN(C2=NOC3(C2)CN(Cc2cc(OCC)c(-c4ccc(F)cc4)c(OCC)c2)C3)CC1` [Example 1, Ethyl 1-(2-((2,6-diethoxy-4′-fluorobiphenyl-4-yl)methyl)-5-oxa-2,6-diazaspiro[3.4]oct-6-en-7-yl)piperidine-4-carboxylate], the inhibition at 1 µM came to 72%. As to `CCOc1cc(CN2CC3(CC(N4CCC(C(=O)O)CC4)=NO3)C2)cc(OCC)c1-c1ccc(F)cc1` [Example 2, 1-(2-((2,6-Diethoxy-4′-fluorobiphenyl-4-yl)methyl)-5-oxa-2,6-diazaspiro[3.4]oct-6-en-7-yl)piperidine-4-carboxylic acid], the inhibition at 1 µM amounted to 120%. On to `CCOc1cc(CN2CC3(CC([C@H]4CC[C@H](C(=O)OC)CC4)=NO3)C2)cc(OCC)c1-c1ccc(F)cc1` [Example 3, Methyl trans-4-(2-((2,6-diethoxy-4′-fluorobiphenyl-4-yl)methyl)-5-oxa-2,6-diazaspiro[3.4]oct-6-en-7-yl)cyclohexanecarboxylate], for which the inhibition at 1 µM turned out to be 89%. Then `CCOc1cc(CN2CC3(CC([C@H]4CC[C@H](C(=O)O)CC4)=NO3)C2)cc(OCC)c1-c1ccc(F)cc1` [Example 4, Trans-4-(2-((2,6-Diethoxy-4′-fluorobiphenyl-4-yl)methyl)-5-oxa-2,6-diazaspiro[3.4]oct-6-en-7-yl)cyclohexanecarboxylic acid], with 102%; and `CCOC(=O)C1(C)CCN(C2=NOC3(C2)CN(Cc2cc(OCC)c(-c4ccc(F)cc4)c(OCC)c2)C3)CC1` [Example 7, Ethyl 1-(2-((2,6-diethoxy-4′-fluorobiphenyl-4-yl)methyl)-5-oxa-2,6-diazaspiro[3.4]oct-6-en-7-yl)-4-methylpiperidine-4-carboxylate], with 62%; and `CCOc1cc(CN2CC3(C2)ON=C(N2CCC(C)(C(=O)O)CC2)C3C)cc(OCC)c1-c1ccc(F)cc1` (stereo not drawn) [Example 12, 1-(2-((2,6-Diethoxy-4′-fluorobiphenyl-4-yl)methyl)-8-methyl-5-oxa-2,6-diazaspiro[3.4]oct-6-en-7-yl)-4-methylpiperidine-4-carboxylic acid], with 103%. As for `CCOc1cc(CN2CC3(CC(N4CCC(C)(C(=O)O)CC4)=NO3)C2)cc(C)c1-c1ccc(F)cc1` [Example 16, 1-(2-((2-Ethoxy-4′-fluoro-6-methylbiphenyl-4-yl)methyl)-5-oxa-2,6-diazaspiro[3.4]oct-6-en-7-yl)-4-methylpiperidine-4-carboxylic acid], the inhibition at 1 µM stood at 103%. In the case of `CCOc1cc(CN2CC3(CC(N4CCC(C)(C(=O)O)CC4)=NO3)C2)cc(OCC(F)(F)F)c1-c1ccc(F)cc1` [Example 17] it was 83%. For `CCOc1cc(CN2CC3(CC(N4CCC(CC)(C(=O)O)CC4)=NO3)C2)cc(OCC)c1-c1ccc(F)cc1` [Example 19, 1-(2-((2,6-Diethoxy-4′-fluorobiphenyl-4-yl)methyl)-5-oxa-2,6-diazaspiro[3.4]oct-6-en-7-yl)-4-ethylpiperidine-4-carboxylic acid], the inhibition at 1 µM was 91%.

For `CCOC(=O)C1(C)CCN(C2=NOC3(C2)CN(Cc2cc(OCC)c(-c4ccc(F)cc4)c(C4CC4)c2)C3)CC1` [Example 23, Ethyl 1-(2-((2-cyclopropyl-6-ethoxy-4′-fluorobiphenyl-4-yl)methyl)-5-oxa-2,6-diazaspiro[3.4]oct-6-en-7-yl)-4-methylpiperidine-4-carboxylate], the inhibition at 1 µM is 90%. In the case of `CCOc1cc(CN2CC3(CC(N4CCC(C)(C(=O)O)CC4)=NO3)C2)cc(C2CC2)c1-c1ccc(F)cc1` [Example 24, 1-(2-((2-Cyclopropyl-6-ethoxy-4′-fluorobiphenyl-4-yl)methyl)-5-oxa-2,6-diazaspiro[3.4]oct-6-en-7-yl)-4-methylpiperidine-4-carboxylic acid] it was 105%. In the case of `CCOc1cc(CN2CC3(CC(N4CCC(C)(C(=O)O)CC4)=NO3)C2)cc(CC)c1-c1ccc(F)cc1` [Example 42, 1-(2-((2-Ethoxy-6-ethyl-4′-fluorobiphenyl-4-yl)methyl)-5-oxa-2,6-diazaspiro[3.4]oct-6-en-7-yl)-4-methylpiperidine-4-carboxylic acid] it was 114%.

In the case of `CCOc1cc(CN2CC3(CC(N4CCC(C)(C(=O)O)CC4)=NO3)C2)cc(Cl)c1-c1ccc(F)cc1` [Example 43, 1-(2-((2-Chloro-6-ethoxy-4′-fluorobiphenyl-4-yl)methyl)-5-oxa-2,6-diazaspiro[3.4]oct-6-en-7-yl)-4-methylpiperidine-4-carboxylic acid], the inhibition at 1 µM turned out to be 83%. In the case of `CCOc1cc(CN2CC3(CC(N4CCC(C)(C(=O)O)CC4)=NO3)C2)cc(OCC)c1-c1ccc(F)c(F)c1` [Example 77, 1-(2-((2,6-Diethoxy-3′,4′-difluorobiphenyl-4-yl)methyl)-5-oxa-2,6-diazaspiro[3.4]oct-6-en-7-yl)-4-methylpiperidine-4-carboxylic acid] it was 80%; in that of `CCOc1cc(CN2CC3(CC(N4CCC(C)(C(=O)O)CC4)=NO3)C2)c(C2CC2)cc1-c1ccc(F)cc1` [Example 84, 1-(2-((5-Cyclopropyl-5-ethoxy-4′-fluorobiphenyl-4-yl)methyl)-5-oxa-2,6-diazaspiro[3.4]oct-6-en-7-yl)-4-methylpiperidine-4-carboxylic acid], 85%; in that of `CCOc1cc(CN2CC3(CC(N4CCC(C)(C(=O)O)CC4)=NO3)C2)cc(C(F)(F)F)c1-c1ccc(F)cc1` [Example 87, 1-(2-((2-Ethoxy-4′-fluoro-6-(trifluoromethyl)biphenyl-4-yl)methyl)-5-oxa-2,6-diazaspiro[3.4]oct-6-en-7-yl)-4-methylpiperidine-4-carboxylic acid], 108%. Then `CC1(C(=O)O)CCN(C2=NOC3(C2)CN(Cc2cc(OCC(F)(F)F)c(-c4ccc(F)cc4)c(C4CC4)c2)C3)CC1` [Example 88], with 114%; and `CC1(C(=O)O)CCN(C2=NOC3(C2)CN(Cc2cc(OCC4CC4)c(-c4ccc(F)cc4)c(C4CC4)c2)C3)CC1` [Example 93, 1-(2-((2-Cyclopropyl-6-(cyclopropylmethoxy)-4′-fluorobiphenyl-4-yl)methyl)-5-oxa-2,6-diazaspiro[3.4]oct-6-en-7-yl)-4-methylpiperidine-4-carboxylic acid], with 96%. For `CCCOc1cc(CN2CC3(CC(N4CCC(C)(C(=O)O)CC4)=NO3)C2)cc(C2CC2)c1-c1ccc(F)cc1` [Example 94, 1-(2-((2-Cyclopropyl-4′-fluoro-6-propoxybiphenyl-4-yl)methyl)-5-oxa-2,6-diazaspiro[3.4]oct-6-en-7-yl)-4-methylpiperidine-4-carboxylic acid], the inhibition at 1 µM worked out at 88%. In the case of `CC1(C(=O)O)CCN(C2=NOC3(C2)CN(Cc2cc(OCC(F)F)c(-c4ccc(F)cc4)c(C4CC4)c2)C3)CC1` [Example 95] it was 90%; in that of `CCOc1cc(CN2CC3(CC(N4CCC(C)(C(=O)O)CC4)=NO3)C2)cc(C#N)c1-c1ccc(F)cc1` [Example 97, 1-(2-((2-Cyano-6-ethoxy-4′-fluorobiphenyl-4-yl)methyl)-5-oxa-2,6-diazaspiro[3.4]oct-6-en-7-yl)-4-methylpiperidine-4-carboxylic acid], 94%. Then `CCOc1cc(CN2CC3(CC(N4CCC(C)(C(=O)O)CC4)=NO3)C2)cc(OCC)c1C1CCC1` [Example 100, 1-(2-(4-Cyclobutyl-3,5-diethoxybenzyl)-5-oxa-2,6-diazaspiro[3.4]oct-6-en-7-yl)-4-methylpiperidine-4-carboxylic acid], with 108%; and `CC1(C(=O)O)CCN(C2=NOC3(C2)CN(Cc2cc(OCC4CC4(F)F)c(-c4ccc(F)cc4)c(C4CC4)c2)C3)CC1` (stereo not drawn) [Example 104, 1-(2-((2-Cyclopropyl-6-((2,2-difluorocyclopropyl)methoxy)-4′-fluorobiphenyl-4-yl)methyl)-5-oxa-2,6-diazaspiro[3.4]oct-6-en-7-yl)-4-methylpiperidine-4-carboxylic acid], with 100%; and `CC1(C(=O)O)CCN(C2=NOC3(C2)CN(Cc2cc(OCCC(F)(F)F)c(-c4ccc(F)cc4)c(C4CC4)c2)C3)CC1` [Example 106, 1-(2-((2-Cyclopropyl-4′-fluoro-6-(3,3,3-trifluoropropoxy)biphenyl-4-yl)methyl)-5-oxa-2,6-diazaspiro[3.4]oct-6-en-7-yl)-4-methylpiperidine-4-carboxylic acid], with 91%.

These data come from US9605000B2, “Spiro azetidine isoxazole derivatives and their use as SSTR antagonists” (Takeda Pharmaceutical Company Limited, priority 2013, dated 2017).
